Results taken from ChEMBL document CHEMBL4152379, “Discovery of Pyrrolidine Sulfonamides as Selective and Orally Bioavailable Antagonists of Transient Receptor Potential Vanilloid-4 (TRPV4)” (J Med Chem, 2018).

Legend:
[1] = target: Transient receptor potential cation channel subfamily A member 1 (Homo sapiens, UniProt O75762); assay: Inhibition of TRPA1 (unknown origin)
[2] = target: Transient receptor potential cation channel subfamily M member 8 (Homo sapiens, UniProt Q7Z2W7); assay: Inhibition of TRPM8 (unknown origin)
[3] = target: T1, Short transient receptor potential channel 4 (Homo sapiens, UniProt Q9UBN4); assay: Inhibition of TRPC4 (unknown origin)
T1 sequence (Q9UBN4 whole entry): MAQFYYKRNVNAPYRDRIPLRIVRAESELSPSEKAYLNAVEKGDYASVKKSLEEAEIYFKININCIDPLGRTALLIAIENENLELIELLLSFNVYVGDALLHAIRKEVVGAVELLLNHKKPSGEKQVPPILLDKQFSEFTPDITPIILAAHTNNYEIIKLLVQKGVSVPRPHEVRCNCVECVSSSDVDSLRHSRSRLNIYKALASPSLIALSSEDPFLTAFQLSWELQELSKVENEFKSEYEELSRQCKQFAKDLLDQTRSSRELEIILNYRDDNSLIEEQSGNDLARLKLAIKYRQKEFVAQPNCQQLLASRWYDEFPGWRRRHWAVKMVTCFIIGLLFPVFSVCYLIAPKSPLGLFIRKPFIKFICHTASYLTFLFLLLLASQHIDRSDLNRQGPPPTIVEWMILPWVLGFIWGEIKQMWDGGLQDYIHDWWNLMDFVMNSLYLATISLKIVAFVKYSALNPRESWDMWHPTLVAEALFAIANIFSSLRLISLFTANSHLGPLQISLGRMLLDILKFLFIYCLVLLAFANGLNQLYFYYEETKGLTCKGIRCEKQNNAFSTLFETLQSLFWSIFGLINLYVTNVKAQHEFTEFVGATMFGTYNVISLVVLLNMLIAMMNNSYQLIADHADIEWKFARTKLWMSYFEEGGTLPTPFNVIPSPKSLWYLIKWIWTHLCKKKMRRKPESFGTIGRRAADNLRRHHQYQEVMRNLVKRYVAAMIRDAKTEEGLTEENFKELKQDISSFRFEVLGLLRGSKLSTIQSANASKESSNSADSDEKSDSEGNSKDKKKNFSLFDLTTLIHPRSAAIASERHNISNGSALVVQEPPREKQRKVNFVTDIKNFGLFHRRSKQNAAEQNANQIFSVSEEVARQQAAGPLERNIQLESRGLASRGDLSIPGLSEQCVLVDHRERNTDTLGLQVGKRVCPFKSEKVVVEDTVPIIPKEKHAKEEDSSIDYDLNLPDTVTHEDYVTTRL

[4] = target: T2, Short transient receptor potential channel 5 (Homo sapiens, UniProt Q9UL62); assay: Inhibition of TRPC5 (unknown origin)
T2 sequence (Q9UL62 whole entry): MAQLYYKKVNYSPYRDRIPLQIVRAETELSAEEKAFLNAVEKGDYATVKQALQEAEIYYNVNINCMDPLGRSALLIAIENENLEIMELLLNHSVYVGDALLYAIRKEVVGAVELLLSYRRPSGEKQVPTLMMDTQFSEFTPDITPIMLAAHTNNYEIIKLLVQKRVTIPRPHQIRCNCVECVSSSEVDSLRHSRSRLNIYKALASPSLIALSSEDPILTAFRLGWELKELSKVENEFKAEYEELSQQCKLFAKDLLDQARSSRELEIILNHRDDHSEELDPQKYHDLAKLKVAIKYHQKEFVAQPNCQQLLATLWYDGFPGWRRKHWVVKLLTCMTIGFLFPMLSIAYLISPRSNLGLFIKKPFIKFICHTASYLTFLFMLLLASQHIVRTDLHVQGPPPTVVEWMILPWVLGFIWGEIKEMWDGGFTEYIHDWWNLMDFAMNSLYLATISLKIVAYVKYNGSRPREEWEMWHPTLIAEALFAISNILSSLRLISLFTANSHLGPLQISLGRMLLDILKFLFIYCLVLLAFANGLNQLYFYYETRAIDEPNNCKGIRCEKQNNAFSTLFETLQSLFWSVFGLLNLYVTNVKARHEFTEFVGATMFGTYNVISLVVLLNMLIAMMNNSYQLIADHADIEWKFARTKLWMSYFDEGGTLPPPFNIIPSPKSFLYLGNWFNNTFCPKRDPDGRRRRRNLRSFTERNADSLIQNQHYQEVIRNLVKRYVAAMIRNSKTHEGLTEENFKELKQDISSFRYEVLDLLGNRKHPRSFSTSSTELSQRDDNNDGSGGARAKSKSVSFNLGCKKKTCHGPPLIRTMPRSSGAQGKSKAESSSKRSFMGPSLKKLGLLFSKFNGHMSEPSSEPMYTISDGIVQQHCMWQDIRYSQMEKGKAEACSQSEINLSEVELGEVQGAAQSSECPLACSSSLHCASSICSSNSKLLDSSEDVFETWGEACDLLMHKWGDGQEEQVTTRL

Measured: IC50

Chain of Transient receptor potential cation channel subfamily A member 1 (O75762 whole entry): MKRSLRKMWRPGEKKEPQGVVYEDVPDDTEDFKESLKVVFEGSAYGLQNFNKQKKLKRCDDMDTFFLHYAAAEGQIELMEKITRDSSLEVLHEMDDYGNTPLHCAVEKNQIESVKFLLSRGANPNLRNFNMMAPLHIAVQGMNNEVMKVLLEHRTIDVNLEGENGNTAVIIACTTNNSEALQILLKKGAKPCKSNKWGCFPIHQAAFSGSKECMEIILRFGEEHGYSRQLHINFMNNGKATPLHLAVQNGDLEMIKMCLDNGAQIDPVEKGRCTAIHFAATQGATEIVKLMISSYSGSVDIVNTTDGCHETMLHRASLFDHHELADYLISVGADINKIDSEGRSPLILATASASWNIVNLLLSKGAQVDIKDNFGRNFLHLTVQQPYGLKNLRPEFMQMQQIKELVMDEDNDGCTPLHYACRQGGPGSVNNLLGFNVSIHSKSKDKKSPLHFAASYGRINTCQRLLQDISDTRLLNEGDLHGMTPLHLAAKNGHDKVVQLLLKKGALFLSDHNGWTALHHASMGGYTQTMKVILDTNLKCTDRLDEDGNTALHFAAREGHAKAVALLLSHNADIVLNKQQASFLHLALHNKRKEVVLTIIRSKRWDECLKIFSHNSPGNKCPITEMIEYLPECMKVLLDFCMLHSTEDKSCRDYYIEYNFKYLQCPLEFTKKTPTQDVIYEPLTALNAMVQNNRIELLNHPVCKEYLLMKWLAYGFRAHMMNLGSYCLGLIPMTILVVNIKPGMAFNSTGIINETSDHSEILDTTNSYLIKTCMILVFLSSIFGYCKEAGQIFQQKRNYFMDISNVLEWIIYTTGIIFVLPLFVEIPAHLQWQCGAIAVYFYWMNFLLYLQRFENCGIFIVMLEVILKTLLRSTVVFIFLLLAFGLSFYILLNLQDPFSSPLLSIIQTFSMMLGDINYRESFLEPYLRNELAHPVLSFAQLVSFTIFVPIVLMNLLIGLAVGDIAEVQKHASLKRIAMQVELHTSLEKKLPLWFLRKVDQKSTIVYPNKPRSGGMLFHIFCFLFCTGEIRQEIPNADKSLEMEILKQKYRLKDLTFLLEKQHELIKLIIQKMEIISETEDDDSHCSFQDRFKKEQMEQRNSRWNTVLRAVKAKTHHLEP
Chain of Transient receptor potential cation channel subfamily M member 8 (Q7Z2W7 whole entry): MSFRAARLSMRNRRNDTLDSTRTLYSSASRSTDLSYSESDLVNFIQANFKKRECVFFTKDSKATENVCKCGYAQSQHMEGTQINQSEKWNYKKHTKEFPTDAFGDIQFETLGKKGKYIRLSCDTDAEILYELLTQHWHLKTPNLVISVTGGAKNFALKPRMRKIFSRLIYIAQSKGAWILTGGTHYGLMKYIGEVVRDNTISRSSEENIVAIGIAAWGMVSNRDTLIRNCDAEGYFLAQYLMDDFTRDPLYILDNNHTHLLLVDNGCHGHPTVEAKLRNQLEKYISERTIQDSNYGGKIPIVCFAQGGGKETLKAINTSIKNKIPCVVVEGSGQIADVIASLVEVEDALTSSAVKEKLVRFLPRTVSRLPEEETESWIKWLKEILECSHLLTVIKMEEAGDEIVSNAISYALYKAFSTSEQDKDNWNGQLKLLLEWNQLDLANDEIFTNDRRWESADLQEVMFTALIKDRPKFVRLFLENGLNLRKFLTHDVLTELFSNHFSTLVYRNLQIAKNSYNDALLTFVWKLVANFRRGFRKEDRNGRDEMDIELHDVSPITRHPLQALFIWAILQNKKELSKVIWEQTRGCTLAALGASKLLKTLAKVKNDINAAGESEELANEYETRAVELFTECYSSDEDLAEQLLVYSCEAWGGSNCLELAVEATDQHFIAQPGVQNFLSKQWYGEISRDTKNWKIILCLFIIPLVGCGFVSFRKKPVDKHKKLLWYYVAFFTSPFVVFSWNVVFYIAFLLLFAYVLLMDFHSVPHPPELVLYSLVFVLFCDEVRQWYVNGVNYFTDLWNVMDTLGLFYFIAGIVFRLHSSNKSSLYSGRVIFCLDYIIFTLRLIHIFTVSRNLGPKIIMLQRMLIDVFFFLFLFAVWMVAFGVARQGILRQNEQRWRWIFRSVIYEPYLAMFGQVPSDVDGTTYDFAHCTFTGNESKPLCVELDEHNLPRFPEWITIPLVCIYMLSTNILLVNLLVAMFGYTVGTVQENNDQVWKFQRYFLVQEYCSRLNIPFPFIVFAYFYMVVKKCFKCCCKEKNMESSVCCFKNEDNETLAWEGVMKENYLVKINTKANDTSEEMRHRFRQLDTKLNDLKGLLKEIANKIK

N#Cc1ccc(O[C@H]2CN(S(=O)(=O)c3ccc(Cl)cc3Cl)C[C@@]2(O)CO)cc1F
> 10 µM: [1] | [2] | [3] | [4]
